Consider 17 compounds from patent publication US12065435B2, “Compounds for the treatment of glycogen storage disorders” (HADASIT MEDICAL RESEARCH SERVICES AND DEVELOPMENT LTD., priority 2017, dated 2024).

For assay [1], the system named is polyglucosan body (PB) in APBD patient-derived fibroblasts. As to the kind of experiment: High content (image-based) PAS screening assay for polyglucosan bodies. It is filed as cell-based, human. Particulars: 0, 1, 5, 10 and 50 μM. Here is the method: All the steps of the assay were performed automatically using a Freedom Evo 150 liquid handling robot (Tecan). APBD patient-derived fibroblasts were seeded at a density of 800 cells/well in DMEM (Gibco) supplemented with 1 mM sodium pyruvate (Gibco), 1% antibiotics (Biological Industries, Israel) and 5% fetal bovine serum (Hyclone) into 384 well microclear plates (Greiner). The plates were transferred by the robotic arm (RoMa) into an automated incubator (Liconic), integrated with the robotic system, where they were incubated at 37° C. with 5% CO2. Following 24 h incubation, the medium was replaced by the robot using medium supplemented with 10 μM of each screened compound (0.1% DMSO final concentration, all prepared by the robot). The screened compounds were part of the Diverset CL collection purchased from ChemBridge (10,084 out of 50,000 molecules).
Next, these cells were cultured for another 24 h in the automated incubator, and, using the robot, washed them with PBS (Biological Industries, Israel), the cells were fixed with 4% paraformaldehyde (PFA), washed again with PBS, neutralized the previously added PFA by ammonium chloride (Sigma Aldrich), washed with PBS, permeabilized with 0.1% Triton X-100 (Sigma Aldrich), and washed again with PBS.
Following this, a robot was used to treat the fixed cells with 0.5 g/dl diastase (or amylase, Sigma Aldrich) for 5 minutes at 37° C. in the automated incubator, wash with PBS, stained with PAS (Merck), Hoechst 33342 (Sigma Aldrich) and Cell Mask Deep Red (Molecular Probes) and wash with PBS. Images of stained cells were then acquired by the IN Cell Analyzer 2000 (GE Healthcare) and analyzed using the IN Cell Investigator (GE Healthcare) applying an algorithm that quantified the PAS signal within each Cell Mask stained cell.
Images were segmented based on the Cell Mask signal which was linked with the segmentation of the nuclei, employing an empirically established sensitivity and kernel size for allowing the best segmentation. Once these nucleus-cytoplasm complex objects were selected, the software calculated the number of these objects (cell number) as well as the intensity of the PAS signal within each of them. All the assay parameters (including the acquisition exposure times, objective, and the analysis parameters) were kept constant throughout the whole screening campaign for allowing comparison of signals obtained from different batches of assay within the campaign.
The assay was performed as mentioned above, but with compound concentrations of 1, 5, 10, and 50 μM, instead of a constant concentration of 10 μM.
The discarded data was presumably associated with cells affected by toxic compounds. In the remaining data, the measured population mean PB intensity was normalized. Based on a series of images used for training, compounds were considered as positive only where following treatment the normalized PB mean intensity was at least under −1.2 z-score of the scale. Following this approach, 85 potential hits out of the 10,084 screened compounds were selected (0.84%).

The next assay concerns the target T1, recombinant human GS1 (Homo sapiens, UniProt P13807).
T1 sequence (P13807 1-737): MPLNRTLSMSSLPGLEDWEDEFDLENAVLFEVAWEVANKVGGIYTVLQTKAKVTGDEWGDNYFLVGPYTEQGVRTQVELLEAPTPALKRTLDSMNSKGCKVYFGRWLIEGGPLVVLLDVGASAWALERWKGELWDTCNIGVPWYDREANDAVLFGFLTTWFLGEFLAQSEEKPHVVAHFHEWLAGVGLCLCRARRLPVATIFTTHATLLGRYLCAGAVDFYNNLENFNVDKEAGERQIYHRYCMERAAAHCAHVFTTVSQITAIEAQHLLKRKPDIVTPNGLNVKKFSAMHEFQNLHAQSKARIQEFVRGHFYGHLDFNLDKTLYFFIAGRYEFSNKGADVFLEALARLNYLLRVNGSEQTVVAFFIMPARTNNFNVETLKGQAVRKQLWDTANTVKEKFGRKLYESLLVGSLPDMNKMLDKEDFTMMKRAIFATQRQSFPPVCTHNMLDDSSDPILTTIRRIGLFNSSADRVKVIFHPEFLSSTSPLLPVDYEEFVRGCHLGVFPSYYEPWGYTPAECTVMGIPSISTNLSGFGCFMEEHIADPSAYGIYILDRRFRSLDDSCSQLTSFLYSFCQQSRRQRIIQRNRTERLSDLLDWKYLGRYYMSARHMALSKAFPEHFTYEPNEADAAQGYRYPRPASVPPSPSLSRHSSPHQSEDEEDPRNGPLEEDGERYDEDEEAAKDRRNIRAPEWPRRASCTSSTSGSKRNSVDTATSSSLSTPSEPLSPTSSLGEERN
As to the kind of experiment: In vitro GS activity assay. The assay is classed as biochemical. Particulars: 50 μM; unpaired t-tests, p<0.05. Here is the method:
The reaction was carried out in 96-well plates containing 50 μl of reaction volume (50 mM Tris, pH8, 20 mM EDTA, 25 mM KF, 2 mg/ml glycogen, 10 mM Glucose-6-Phosphate, 1.65 mM UDP[14C]glucose and 100 mM UDP-glucose). To test the inhibitory effect of the hits, each one was included in the reaction at a final concentration of 50 μM. The reaction was initiated with the addition of 20 nM recombinant human GS1, followed by incubation at 37° C. for 30 min. The reaction was then stopped with the addition of 100 μl cold 100% ethanol, and the total suspension was transferred into a 96-well filter plate. Vacuum was applied to remove the ethanol. Five washing steps with 150 μl of cold 66% ethanol then fully removed any non-incorporated UDP[14C]glucose, while the labelled glycogen stayed on the well filters. The plate was dried at 37° C. incubator for 30 min. 50 μl of scintillation fluid was added to each well and the plate was read for 14C signal on Microplate scintillation and luminescence counter Top Count (Perkin Elmer).

SMILES strings stand for the structures.

As to `CC(C)CCN1CCNC(=O)C1CC(=O)N1CCc2[nH]nc(C3CC3)c2C1` (centres unmarked) [UDP #3, 3-[2-(3-cyclopropyl-1,4,6,7-tetrahydro-5H-pyrazolo[4,3-c]pyridin-5-yl)-2-oxoethyl]-4-(3-methylbutyl)-2-piperazinone], the “dose response of diastase resistant cell associated mean PAS intensity normalized by z-score” value in assay [1] is on record as “lowered mean normalized PAS intensity in a non-dose responding manner”.

Regarding `Cc1ccc2c(c1)c(CNC(=O)c1ccccc1C1CCNC1)nn2C` (centres unmarked) [UDP #10, N-[(1,5-dimethyl-1H-indazol-3-yl)methyl]-2-(3-pyrrolidinyl)benzamide], on recombinant human GS1, the “effect on GS activity (direction of change)” value (from here on “effect … (direction of change)”) is listed as “except for compound #10, have significantly changed GS activity”. Further, the “dose response of diastase resistant cell associated mean PAS intensity normalized by z-score” value in assay [1] was “lowered mean normalized PAS intensity in a non-dose responding manner”.

On to `CC(C)n1ccnc1CN1CCC(c2[nH]ncc2-c2cccc(F)c2)CC1` [UDP #6, 4-[4-(3-fluorophenyl)-1H-pyrazol-5-yl]-1-[(1-isopropyl-1H-imidazol-2-yl)methyl]piperidine], for which, at recombinant human GS1, the “effect … (direction of change)” value is on record as “increasing”. Further, the “dose response of diastase resistant cell associated mean PAS intensity normalized by z-score” value in assay [1] is recorded as “concentration dependent”.

`Cc1nc(C(C)C)cc(N2CCN(Cc3ncccc3C)CC2)n1` [UDP #7, 4-isopropyl-2-methyl-6-{4-[(3-methylpyridin-2-yl)methyl]piperazin-1-yl}pyrimidine]: on recombinant human GS1, the “effect … (direction of change)” value is given as “increasing”. Also, the “dose response of diastase resistant cell associated mean PAS intensity normalized by z-score” value in assay [1] is reported as “lowered mean normalized PAS intensity in a non-dose responding manner”.

Turning to `CC1CCC(=O)N1c1ccc(-n2cnnc2)cc1` (centres unmarked) [UDP #8, 5-methyl-1-[4-(4H-1,2,4-triazol-4-yl)phenyl]pyrrolidin-2-one], on recombinant human GS1, the “effect … (direction of change)” value is on record as “increasing”. The “dose response of diastase resistant cell associated mean PAS intensity normalized by z-score” value in assay [1] is on record as “concentration dependent”.

Turning to `O=C(CN1CCOC1=O)N1CC[C@@H](c2ccc3ccccc3c2)[C@H](O)C1` (relative stereo) [UDP #5, 3-{2-[(3S*,4S*)-3-hydroxy-4-(2-naphthyl)piperidin-1-yl]-2-oxoethyl}-1,3-oxazolidin-2-one], the “dose response of diastase resistant cell associated mean PAS intensity normalized by z-score” value in assay [1] was “concentration dependent”.

For the compound `COc1cc(F)c(CN2CCN(c3cncc(C(N)=O)n3)CC2)c(F)c1` [UDP #2, 6-[4-(2,6-difluoro-4-methoxybenzyl)piperazin-1-yl]pyrazine-2-carboxamide], in assay [1], the “dose response of diastase resistant cell associated mean PAS intensity normalized by z-score” value is listed as “concentration dependent”.

With `Oc1ccc(-c2cc(NCc3cccnc3)nc3[nH]ccc23)c(F)c1` [UDP #1, 3-fluoro-4-{6-[(pyridin-3-ylmethyl)amino]-1H-pyrrolo[2,3-b]pyridin-4-yl}phenol], the “dose response of diastase resistant cell associated mean PAS intensity normalized by z-score” value in assay [1] is on record as “lowered mean normalized PAS intensity in a non-dose responding manner”.

Regarding `CCc1ccc(CN(C)C(=O)c2ccc3c(c2)no[n+]3[O-])nc1` [UDP #11, N-[(5-ethylpyridin-2-yl)methyl]-N-methyl-2,1,3-benzoxadiazole-5-carboxamide 1-oxide], in assay [1], the “dose response of diastase resistant cell associated mean PAS intensity normalized by z-score” value is on record as “concentration dependent”.

With `C1CCc2c(n[nH]c2CCNC2CCC3(CCNCC3)CC2)C1` [UDP #15], the “dose response of diastase resistant cell associated mean PAS intensity normalized by z-score” value in assay [1] is “concentration dependent”.

Take `CCO[C@H]1COC[C@@H]1NC(=O)Cc1c(C)nc(N)nc1C` (relative stereo) [UDP #13, 2-(2-amino-4,6-dimethylpyrimidin-5-yl)-N-[(3S*,4R*)-4-ethoxytetrahydrofuran-3-yl]acetamide]: in assay [1], the “dose response of diastase resistant cell associated mean PAS intensity normalized by z-score” value is listed as “concentration dependent”.

Take `CC(C)(C)c1ccc(O)c(-n2cnnc2)c1` [UDP #14, 4-tert-butyl-2-(4H-1,2,4-triazol-4-yl)phenol]: the “dose response of diastase resistant cell associated mean PAS intensity normalized by z-score” value in assay [1] was “concentration dependent”.

For the compound `Cn1nc(-c2cccs2)cc1C(=O)N1[C@@H]2CC[C@H]1CNC(=O)C2` (relative stereo) [UDP #9, (1S*,6R*)-9-{[1-methyl-3-(2-thienyl)-1H-pyrazol-5-yl]carbonyl}-3,9-diazabicyclo[4.2.1]nonan-4-one], the “dose response of diastase resistant cell associated mean PAS intensity normalized by z-score” value in assay [1] is recorded as “lowered mean normalized PAS intensity in a non-dose responding manner”.

With `Cc1ccc(NC(=O)CCn2cnc(-c3ccccc3)c2C2CCOC2)c(C)c1` (centres unmarked) [UDP #18, N-(2,4-dimethylphenyl)-3-[4-phenyl-5-(tetrahydrofuran-3-yl)-1H-imidazol-1-yl]propanamide], at recombinant human GS1, the “effect … (direction of change)” value was “increasing”. Also, the “dose response of diastase resistant cell associated mean PAS intensity normalized by z-score” value in assay [1] is “lowered mean normalized PAS intensity in a non-dose responding manner”.

Consider `COc1ccc(-c2ncc(C)c(N)n2)c(C)c1` [UDP #16, 2-(4-methoxy-2-methylphenyl)-5-methylpyrimidin-4-amine], for which, in assay [1], the “dose response of diastase resistant cell associated mean PAS intensity normalized by z-score” value was “lowered mean normalized PAS intensity in a non-dose responding manner”.

As to `Cc1c(NC(=O)c2ccco2)cccc1C(=O)N1CCC2(CCCNC2)C1` (centres unmarked) [UDP #17, N-[3-(2,7-diazaspiro[4.5]dec-2-ylcarbonyl)-2-methylphenyl]-2-furamide], in assay [1], the “dose response of diastase resistant cell associated mean PAS intensity normalized by z-score” value is “concentration dependent”.

For `O=C(c1ccoc1)N1CCOc2c(O)cc(-c3cccc(Cl)c3)cc2C1` [UDP #12, 7-(3-chlorophenyl)-4-(3-furoyl)-2,3,4,5-tetrahydro-1,4-benzoxazepin-9-ol], the “effect … (direction of change)” value on recombinant human GS1 was “increasing”. Further, the “dose response of diastase resistant cell associated mean PAS intensity normalized by z-score” value in assay [1] is reported as “concentration dependent”.
